From patent US20050256134A1, “Use of creatine analogues and creatine kinase modulators for the prevention and treatment of glucose metabolic disorders” (AVICENA GROUP, INC., priority 1995, published 2005)

Tested on: terminal cancer patients
Experiment: Phase I/II open label dose escalation study, glucose levels, 3 hour continuous infusion
Format: in vivo, human
Method: Cyclocreatine was tested in humans in a phase I/II open label dose escalation study. […] Cyclocreatine was administered at doses that ranged from 10 mg/Kg to 100 mg/Kg. The schedule of administration of cyclocreatine is described in Table 4.
Cohorts of 3 patients were administered drug at each dose level, via a 3 hour continuous infusion in one liter volume of saline. The first week patients received cyclocreatine once, the second week patients received cyclocreatine twice, the third week three times, the fourth week four times, the fifth week five times. On weeks six and seven, no drug was administered to allow the drug to wash out. On week eight, cyclocreatine was given five times. The study included a total of 23 patients (18 male, 5 female) with a median age of 71 years (range 54-85). The patients had different types of malignancies. Eligibility requirements included patients who have failed standard therapy or for whom no therapy was available, normal organ function, have recovered from prior therapies, probability of survival of greater than three months. Reasons for exclusion included: major surgery, life threatening concurrent illness and CNS metastasis. Blood samples were collected at baseline and 1 day before and after the last weekly drug administration on days 1, 7, 9, 14, 17, 21, 25, 28, 33, 40, 47, 49, 54, 61, and 69. Glucose levels were determined for these collected blood samples. […] Not all patients experienced a significant drop in glucose although the trend was there. FIGS. 14 and 15 illustrate graphically individual patients' glucose levels upon treatment with 60 mg/Kg or 80 mg/Kg cyclocreatine. Patient (A) at the 80 mg/Kg dose was diabetic and had many serious complications due to their disease. […] It should be noted that an insufficient number of readings was made shortly after drug administration. It is interesting to note that several patients who were diabetic or had higher glucose levels than normal did respond to cyclocreatine, onen example being illustrated in FIG. 16.

## NC1=NCCN1CC(=O)O [cyclocreatine]
80 mg/Kg
  patients with significant hypoglycemia: 2 out of 3
100 mg/Kg
  patients with significant hypoglycemia: 2 out of 7
Ave, 40 mg/Kg, Study Day 0
  Glucose: 125 mg/dL
Ave, 40 mg/Kg, Study Day 1
  Glucose: 105 mg/dL
Ave, 40 mg/Kg, Study Day 7
  Glucose: 119 mg/dL
Ave, 40 mg/Kg, Study Day 9
  Glucose: 125 mg/dL
Ave, 40 mg/Kg, Study Day 14
  Glucose: 129 mg/dL
Ave, 40 mg/Kg, Study Day 17
  Glucose: 139 mg/dL
Ave, 40 mg/Kg, Study Day 21
  Glucose: 112 mg/dL
Ave, 40 mg/Kg, Study Day 25
  Glucose: 161 mg/dL
Ave, 40 mg/Kg, Study Day 28
  Glucose: 122 mg/dL
Ave, 40 mg/Kg, Study Day 33
  Glucose: 149 mg/dL
Ave, 40 mg/Kg, Study Day 40
  Glucose: 104 mg/dL
Ave, 40 mg/Kg, Study Day 47
  Glucose: 99 mg/dL
Ave, 40 mg/Kg, Study Day 49
  Glucose: 128 mg/dL
Ave, 40 mg/Kg, Study Day 54
  Glucose: 132 mg/dL
Ave, 40 mg/Kg, Study Day 61
  Glucose: 105 mg/dL
Ave, 40 mg/Kg, Study Day 69
  Glucose: 119 mg/dL
Ave, 60 mg/Kg, Study Day 7
  Glucose: 37 mg/dL
Patient 2, 7, 40 mg/Kg, Study Day 0
  Glucose: 115 mg/dL
Patient 2, 7, 40 mg/Kg, Study Day 1
  Glucose: 95 mg/dL
Patient 2, 7, 40 mg/Kg, Study Day 7
  Glucose: 153 mg/dL
Patient 2, 7, 40 mg/Kg, Study Day 9
  Glucose: 123 mg/dL
Patient 2, 7, 40 mg/Kg, Study Day 14
  Glucose: 102 mg/dL
Patient 2, 7, 40 mg/Kg, Study Day 17
  Glucose: 117 mg/dL
Patient 2, 7, 40 mg/Kg, Study Day 21
  Glucose: 104 mg/dL
Patient 2, 7, 40 mg/Kg, Study Day 25
  Glucose: 122 mg/dL
Patient 2, 7, 40 mg/Kg, Study Day 28
  Glucose: 154 mg/dL
Patient 2, 8, 40 mg/Kg, Study Day 0
  Glucose: 222 mg/dL
Patient 2, 8, 40 mg/Kg, Study Day 1
  Glucose: 116 mg/dL
Patient 2, 8, 40 mg/Kg, Study Day 9
  Glucose: 148 mg/dL
Patient 2, 8, 40 mg/Kg, Study Day 14
  Glucose: 184 mg/dL
Patient 2, 8, 40 mg/Kg, Study Day 17
  Glucose: 251 mg/dL
Patient 2, 8, 40 mg/Kg, Study Day 25
  Glucose: 278 mg/dL
Patient 2, 8, 40 mg/Kg, Study Day 33
  Glucose: 244 mg/dL
Patient 2, 8, 40 mg/Kg, Study Day 40
  Glucose: 139 mg/dL
Patient 2, 8, 40 mg/Kg, Study Day 49
  Glucose: 129 mg/dL
Patient 2, 8, 40 mg/Kg, Study Day 54
  Glucose: 195 mg/dL
Patient 2, 8, 40 mg/Kg, Study Day 69
  Glucose: 205 mg/dL
Patient 2, 9, 40 mg/Kg, Study Day 0
  Glucose: 98 mg/dL
Patient 2, 9, 40 mg/Kg, Study Day 1
  Glucose: 87 mg/dL
Patient 2, 9, 40 mg/Kg, Study Day 7
  Glucose: 117 mg/dL
Patient 2, 9, 40 mg/Kg, Study Day 9
  Glucose: 148 mg/dL
Patient 2, 9, 40 mg/Kg, Study Day 14
  Glucose: 126 mg/dL
Patient 2, 9, 40 mg/Kg, Study Day 17
  Glucose: 139 mg/dL
Patient 2, 9, 40 mg/Kg, Study Day 21
  Glucose: 90 mg/dL
Patient 2, 9, 40 mg/Kg, Study Day 25
  Glucose: 114 mg/dL
Patient 2, 9, 40 mg/Kg, Study Day 28
  Glucose: 87 mg/dL
Patient 2, 9, 40 mg/Kg, Study Day 33
  Glucose: 121 mg/dL
Patient 2, 9, 40 mg/Kg, Study Day 40
  Glucose: 92 mg/dL
Patient 2, 9, 40 mg/Kg, Study Day 47
  Glucose: 105 mg/dL
Patient 2, 9, 40 mg/Kg, Study Day 49
  Glucose: 132 mg/dL
Patient 2, 9, 40 mg/Kg, Study Day 54
  Glucose: 105 mg/dL
Patient 2, 9, 40 mg/Kg, Study Day 61
  Glucose: 104 mg/dL
Patient 2, 9, 40 mg/Kg, Study Day 69
  Glucose: 92 mg/dL
Patient 8, 40 mg/Kg, Study Day 0
  Glucose: 94 mg/dL
Patient 8, 40 mg/Kg, Study Day 1
  Glucose: 114 mg/dL
Patient 8, 40 mg/Kg, Study Day 7
  Glucose: 96 mg/dL
Patient 8, 40 mg/Kg, Study Day 9
  Glucose: 115 mg/dL
Patient 8, 40 mg/Kg, Study Day 14
  Glucose: 87 mg/dL
Patient 8, 40 mg/Kg, Study Day 17
  Glucose: 91 mg/dL
Patient 8, 40 mg/Kg, Study Day 21
  Glucose: 103 mg/dL
Patient 8, 40 mg/Kg, Study Day 25
  Glucose: 96 mg/dL
Patient 8, 40 mg/Kg, Study Day 28
  Glucose: 125 mg/dL
Patient 8, 40 mg/Kg, Study Day 33
  Glucose: 122 mg/dL
Patient 8, 40 mg/Kg, Study Day 40
  Glucose: 67 mg/dL
Patient 8, 40 mg/Kg, Study Day 47
  Glucose: 116 mg/dL
Patient 8, 40 mg/Kg, Study Day 49
  Glucose: 122 mg/dL
Patient 8, 40 mg/Kg, Study Day 54
  Glucose: 136 mg/dL
Patient 8, 40 mg/Kg, Study Day 61
  Glucose: 102 mg/dL
Patient 8, 40 mg/Kg, Study Day 69
  Glucose: 135 mg/dL
Patient 9, 40 mg/Kg, Study Day 0
  Glucose: 118 mg/dL
Patient 9, 40 mg/Kg, Study Day 1
  Glucose: 114 mg/dL
Patient 9, 40 mg/Kg, Study Day 7
  Glucose: 73 mg/dL
Patient 9, 40 mg/Kg, Study Day 9
  Glucose: 130 mg/dL
Patient 9, 40 mg/Kg, Study Day 14
  Glucose: 151 mg/dL
Patient 9, 40 mg/Kg, Study Day 17
  Glucose: 145 mg/dL
Patient 9, 40 mg/Kg, Study Day 21
  Glucose: 156 mg/dL
Patient 9, 40 mg/Kg, Study Day 25
  Glucose: 210 mg/dL
Patient 9, 40 mg/Kg, Study Day 28
  Glucose: 151 mg/dL
Patient 9, 40 mg/Kg, Study Day 33
  Glucose: 109 mg/dL
Patient 9, 40 mg/Kg, Study Day 40
  Glucose: 128 mg/dL
Patient 9, 40 mg/Kg, Study Day 47
  Glucose: 75 mg/dL
Patient 9, 40 mg/Kg, Study Day 54
  Glucose: 145 mg/dL
Patient 9, 40 mg/Kg, Study Day 61
  Glucose: 121 mg/dL
Patient 9, 40 mg/Kg, Study Day 69
  Glucose: 89 mg/dL
Patient 10, 40 mg/Kg, Study Day 0
  Glucose: 100 mg/dL
Patient 10, 40 mg/Kg, Study Day 7
  Glucose: 156 mg/dL
Patient 10, 40 mg/Kg, Study Day 9
  Glucose: 84 mg/dL
Patient 10, 40 mg/Kg, Study Day 14
  Glucose: 123 mg/dL
Patient 10, 40 mg/Kg, Study Day 17
  Glucose: 93 mg/dL
Patient 10, 40 mg/Kg, Study Day 21
  Glucose: 106 mg/dL
Patient 10, 40 mg/Kg, Study Day 25
  Glucose: 143 mg/dL
Patient 10, 40 mg/Kg, Study Day 28
  Glucose: 91 mg/dL
Patient 10, 40 mg/Kg, Study Day 40
  Glucose: 94 mg/dL
Patient 10, 40 mg/Kg, Study Day 47
  Glucose: 100 mg/dL
Patient 10, 40 mg/Kg, Study Day 54
  Glucose: 79 mg/dL
Patient 10, 40 mg/Kg, Study Day 61
  Glucose: 92 mg/dL
Patient 10, 40 mg/Kg, Study Day 69
  Glucose: 74 mg/dL
Patient 11, 60 mg/Kg, Study Day 7
  Glucose: 141 mg/dL
Patient 12, 60 mg/Kg, Study Day 7
  Glucose: 72 mg/dL
Patient 13, 60 mg/Kg, Study Day 7
  Glucose: 48 mg/dL
Patient (A), diabetic, 80 mg/Kg
  glucose response: did not seem to respond well
Highest tested drug concentrations (80 and 100 mg/Kg)
  clinical observation: became lethargic and hypoglycemic and required immediate intervention to revert glucose levels
Lower tested drug concentrations
  Glucose Levels: trend towards a drop in glucose levels shortly after drug administration
Several patients who were diabetic or had higher glucose levels than normal
  glucose response: did respond
